Columns and labels:
[1] = TK assay, oral mixture dosing: serum concentrations and noncompartmental analysis (sparse data); details: for Serum concentration: oral; for AUC0−inf / Cmax: serum; for Cmax: doses in Table 3 r3, MEHP measured after oral DEHP, BPSG after BPS
Description: The experiment was carried out on thirty 10-wk old female New Zealand white rabbits (INRA 1777 line) weighing 2.37±0.14kg . […] Blood samples were taken at the designated time points post IV and oral administration: 15 min, 30 min, 1 h, 2 h, 4 h, 8 h, 12 h, 24 h, 3 d, 7 d, and 28 d from groups of 3 or 6 rabbits at each sampling time. Each rabbit was sampled 3 times and 3 rabbits were sampled at each sampling time, except at 30 min post administration, when 6 samples were collected to provide a sufficient blood volume for assaying the compounds. The doses and assay time points were selected to allow the calculation of TK parameters (Table 1) based on preliminary TK data. Residual concentrations of the compounds, and their possible evolution over time, were determined by sampling six entirely untreated rabbits during the TK study on the day of drug administrations, then 14 d and 28 d later.
The volume administered was adjusted to the animal’s body weight (BW) recorded the day before.
Intravenous administrations were performed via an indwelling catheter (22G Terumo, 0.9×25mm ) just after its insertion into an ear vein. […] For oral administrations, the mixture of all compounds ( 4mL/kg ) was deposited directly in the mouth of rabbits using a catheter (22G BD Insyte 22G, 0.9×25mm ). Prior to the study, the rabbits had been trained to gradually swallow water and then corn oil.
Blood samples were collected from the auricular artery using a 20 G needle ( 0.9×25mm ) and a dry tube. The first two blood samples were 8–10mL in volume, whereas a large volume (about 20mL ) was obtained antemortem immediately after electrical stunning (95LX rabbit stunner; Burdis), followed by exsanguination.
Serum concentration-time profiles of the different compounds were first analyzed using a noncompartmental approach (NCA) involving a sparse data option. Sparse data methodology consists of calculating TK parameters based on the mean profile of all the subjects in the dataset and is appropriate when a rich data series cannot be obtained, as in the present experiment ([FDA 1999]). The area under the concentration time curve ( AUC0−tlast ) and the area under the first moment curve ( AUMC0−tlast ) from dosing time ( t=0 ) to the time of the last measurable concentration were calculated using the linear trapezoidal rule after IV and oral dosing. The area under the serum concentration time curve from dosing time to infinity ( AUC0−inf ) was obtained by adding to AUC0−tlast the area extrapolated from the time of the last measurable concentration to infinity by dividing the last quantifiable serum concentration by the slope of the terminal phase ( λZ ), as estimated by linear regression using the best fit option of Phoenix®.
The clearance (CL) and apparent clearance (CL_F) were respectively estimated after IV and oral administrations by dividing the administered dose by the AUC0−inf calculated for each analyte.
The terminal half-life (HL) was estimated with Equation 1: (1) HL=0.69315/λZ where λz is the slope of the terminal phase.
The oral bioavailability (F) was estimated using Equation 2: (2) F=AUCvo0−tlast×Doseiv/AUCiv0−tlast×Dosevo, where AUCiv0−tlast and AUCvo0-tlast are the values of AUC0−tlast obtained after IV and oral dosing, respectively, and Doseiv and Dosevo are the IV and oral doses.

[2] = Nonlinear mixed effect (NLME) compartmental modeling of merged IV and oral serum concentrations; details: for AUCIV: dosing time to infinity after intravenous dosing; for AUCVO: dosing time to infinity after oral dosing, MEHP after oral DEHP
Source text: A nonlinear mixed effect (NLME) modeling approach was used to analyze simultaneously all data obtained from the different rabbits after both IV and oral administrations and to provide robust estimates of the typical TK parameters.
The primary parameters of the model, namely the volume of distribution of the central compartment (V1), the first-order rate constants ( K10 , K12 , K21 , and Kabs plus K13 , K31 for PFOA) and the bioavailability (F) and their associated precisions [standard error (SE)] were estimated by minimizing an objective function value (OFV) expressed as minus twice the log of the likelihood estimation ( −2LL ). […] Marginal likelihood was approximated by using the Laplacian engine by default and, when this engine was unable to determine the SE of the estimate, the Quasi-Random Parametric Expectation Maximization (QRPEM) was selected.
Between subject variability (BSV) of the parameters was measured using the exponential model θparameter_i=θtv_parameter×exp (ηi), where θparameter_i is the parameter estimated for the ith individual, θtv_parameter is the typical population value of the parameter, and ηi is the deviation associated with the ith individual from the corresponding value of the parameter at the population level.
The distribution of ηi was assumed to be normal with a mean of 0 and a variance ω² . BSV was reported as a coefficient of variation (CV) in the original scale CV(%)=100× exp (ω^2)−1 .
The residual variance was modeled using a combined additive and proportional error model Cobsij=Cpredij(1 + ε1ij) + ε2ij, where Cobsij and Cpredij are respectively the jth observed and predicted concentrations for the ith individual, and ε1ij and ε2ij are the multiplicative and additive residual errors.
Secondary parameters were calculated from the population primary parameters.
The clearance values (CL) were estimated using Equation 5: (5) CL=K10×V1, where V1 is the volume of the central compartment and K10 is the elimination rate constant from the central compartment.
The volume of the peripheral compartment (V2) was estimated with Equation 6: (6) V2=V1×(K12/K21), where K12 and K21 are the distribution rate constants between the central and the peripheral compartments.
The clearance of distribution (Q) was estimated using Equation 7: (7) Q=K12×V1, with […] and K12 as defined above.
The volume of distribution associated with the terminal phase was estimated with Equation 10: (10) VZ=CL/λZ, with λZ as defined above.
The AUC was computed as a secondary parameter using Equation 11: (11) AUC=Dose/CL.
The terminal half-life was estimated with Equation 1, as previously described.

[3] = oral mixture dosing, NCA, n=12, MEHP after oral DEHP
[4] = rabbit 13, 4.30 h, MEHP after oral DEHP
[5] = rabbit 14, 0.37 h, MEHP after oral DEHP
[6] = rabbit 14, 4.17 h, MEHP after oral DEHP
[7] = rabbit 15, 4.05 h, MEHP after oral DEHP
[8] = rabbit 15, 23.98 h, MEHP after oral DEHP
[9] = rabbit 16, 0.55 h, MEHP after oral DEHP
[10] = rabbit 16, 8.22 h, MEHP after oral DEHP
[11] = rabbit 16, 72.00 h, MEHP after oral DEHP
[12] = rabbit 17, 0.53 h, MEHP after oral DEHP
[13] = rabbit 17, 8.48 h, MEHP after oral DEHP
[14] = rabbit 17, 72.00 h, MEHP after oral DEHP
[15] = rabbit 18, 0.55 h, MEHP after oral DEHP
[16] = rabbit 18, 8.00 h, MEHP after oral DEHP
[17] = rabbit 18, 71.96 h, MEHP after oral DEHP
[18] = rabbit 19, 1.02 h, MEHP after oral DEHP
[19] = rabbit 19, 12.00 h, MEHP after oral DEHP
[20] = rabbit 20, 1.07 h, MEHP after oral DEHP
[21] = rabbit 20, 12.00 h, MEHP after oral DEHP
[22] = rabbit 21, 1.08 h, MEHP after oral DEHP
[23] = rabbit 21, 12.00 h, MEHP after oral DEHP
[24] = rabbit 22, 2.00 h, MEHP after oral DEHP
[25] = rabbit 23, 2.00 h, MEHP after oral DEHP
[26] = rabbit 24, 2.22 h, MEHP after oral DEHP
[27] = population primary parameter, typical value, mean
[28] = population secondary parameter, mean

| SMILES | MRT [1, 3] | Tmax [1, 3] | Serum concentration [1, 4] | Serum concentration [1, 5] | Serum concentration [1, 6] | Serum concentration [1, 7] | Serum concentration [1, 8] | Serum concentration [1, 9] | Serum concentration [1, 10] | Serum concentration [1, 11] | Serum concentration [1, 12] | Serum concentration [1, 13] | Serum concentration [1, 14] | Serum concentration [1, 15] | Serum concentration [1, 16] | Serum concentration [1, 17] | Serum concentration [1, 18] | Serum concentration [1, 19] | Serum concentration [1, 20] | Serum concentration [1, 21] | further results |
| --- | --- | --- | --- | --- | --- | --- | --- | --- | --- | --- | --- | --- | --- | --- | --- | --- | --- | --- | --- | --- | --- |
| O=S(=O)(c1ccc(O)cc1)c1ccc(O)cc1 [BPS, bisphenol S] | 6.54 h | 0.23 h | 0.14 µM | 1.55 µM | 0.13 µM | 0.11 µM | 0.012 µM | 0.32 µM | 0.050 µM | < 0.004 µM | 0.058 µM | 0.121 µM | < 0.004 µM | 0.94 µM | 0.049 µM | < 0.004 µM | 0.19 µM | 0.087 µM | 0.15 µM | 0.051 µM | Serum concentration [1, 22]: 0.097 µM; Serum concentration [1, 23]: 0.10 µM; Serum concentration [1, 24]: 0.12 µM; Serum concentration [1, 25]: 0.088 µM; Serum concentration [1, 26]: 0.11 µM; AUC0−inf [1, 3]: 3.38 µM·h; Cmax ([1]; oral mixture dosing, NCA, n=12): 6.93 µM; AUCIV ([2]; population secondary parameter): 3.3 µM·h; AUCVO ([2]; population secondary parameter): 3.6 µM·h; tvKabs (rate constant of absorption), fixed ([2]; fixed to 10, estimation of Kabs converging toward infinity): 10 h⁻¹; Oral systemic exposure ([2]; oral, dose-normalised AUC): 0.20 μmol/h/L per μmol/kg BW; tvK10 (elimination rate constant from the central compartment) [2, 27]: 1.895 h⁻¹; tvVc (volume of the central compartment) [2, 27]: 1.681 L/kg; MRT [2, 28]: 6.3 h |
| CCCCC(CC)COC(=O)c1ccccc1C(=O)O (centres unmarked) [MEHP, mono(2-ethylhexyl)phthalate] | 12.0 h | 4.05 h | 5.15 µM | 1.09 µM | 5.84 µM | 6.87 µM | 0.27 µM | 1.49 µM | 2.38 µM | 0.033 µM | 2.29 µM | 4.20 µM | 0.025 µM | 2.15 µM | 3.83 µM | 0.091 µM | 4.16 µM | 1.61 µM | 3.16 µM | 1.93 µM | F (fraction of the dose of DEHP that has been metabolized into MEHP) ([1]; NCA, MEHP after oral DEHP vs IV MEHP, as fraction): 0.99; Serum concentration [1, 22]: 2.80 µM; Serum concentration [1, 23]: 1.91 µM; Serum concentration [1, 24]: 3.29 µM; Serum concentration [1, 25]: 2.93 µM; Serum concentration [1, 26]: 1.57 µM; AUC0−inf [1, 3]: 65.2 µM·h; Cmax ([1]; oral mixture dosing, NCA, n=12): 6.87 µM; half-life ([1]; terminal, oral mixture dosing, NCA, n=12, MEHP after oral DEHP): 10.4 h; F value for MEHP (fraction of the DEHP dose metabolized into MEHP) ([2]; MEHP IV vs DEHP oral, NLME model): 87%; AUCIV ([2]; population secondary parameter): 9.0 µM·h; AUCVO ([2]; population secondary parameter): 53 µM·h; tvK10 (elimination rate constant from the central compartment) [2, 27]: 1.411 h⁻¹; tvK12 (distribution rate constant) [2, 27]: 0.285 h⁻¹; tvVc (volume of the central compartment) [2, 27]: 0.329 L/kg; Clearance [2, 28]: 0.47 L/h/kg; MRT [2, 28]: 8.2 h; Volume(s) of the peripheral compartment ([2]; population secondary parameter, mean, for PFOA first peripheral compartment): 3.5 L/kg; MRT ([2]; population secondary parameter, mean, listed as mono-2-ethylhexyl phthalate): a few hours; half-life ([2]; terminal, population secondary parameter, mean): 31 h |

Reference: publication PMC8597046, “Use of Mixture Dosing and Nonlinear Mixed Effect Modeling of Eight Environmental Contaminants in Rabbits to Improve Extrapolation Value of Toxicokinetic Data” (Environmental Health Perspectives, 2021)
